Assay results: patent publication US12286661B2, “Methods for making high intensity sweeteners” (Firmenich Incorporated, priority 2018, dated 2025)
Entries after “also recorded” stand apart in the source; their conditions may differ.

Tests used:
Format in all cases: cell-based
Y. lipolytica = assay: Hydrolysis by hydrolytic enzymes of yeast grown in the presence of the compound, HPLC of lysed cells
Procedure: (§1) S. cerevisiae or Y. lipolytica was grown in the presence of Mogroside V to allow the hydrolytic enzymes in the yeast to generate Mogroside IIIE. After 1 or 2 days, the cells were lysed in analyzed by HPLC to determine the mogroside content.
(§2) S. cerevisiae or Y. lipolytica was grown in the presence of Compound 1.

S. cerevisiae = assay: as above; conditions: for mogroside content after incubation: S. cerevisiae
Procedure: as §1, §2

[1] = test system: Saccharomyces cerevisiae, Yarrowia lipolytica and Candida bombicola; assay: Tolerance to microbial hydrolysis: yeast strains incubated in YPD with 1 mg/ml compound, supernatants analysed by HPLC; conditions: after 3 days
Procedure: Yeast strains Saccharomyces cerevisiae, Yarrowia lipolytica and Candida bombicola, were incubated in YPD supplemented with 1 mg/ml Mogroside V or Compound 1. After 3 days, supernatants were analyzed by HPLC.

cucurbitadienol = assay: 11-OH cucurbitadienol production from cucurbitadienol by CYP450s expressed in S. cerevisiae, LCMS; conditions: S. cerevisiae strain producing cucurbitadienol and expressing SgCPR; LCMS peak area of product vs. internal reference; hits over vector only control
Excerpt: (§3) DNA was obtained through gene synthesis either through Genescript, IDT, or Genewiz. For some of the cucurbitadienol synthases, cDNA or genomic DNA was obtained through 10-60 day old seedlings followed by PCR amplification using specific and degenerate primers. DNA was cloned through standard molecular biology techniques or through yeast gap repair cloning (Joska et al., 2014) into one of the following overexpression vectors: pESC-Ura, pESC-His, or pESC-LEU. Gene expression was regulated by one of the following promoters; Gall, Gal10, Tef1, or GDS. Yeast transformation was performed using Zymo Yeast Transformation Kit II. Yeast strains were grown in standard media (YPD or SC) containing the appropriate selection with 2% glucose or 2% galactose for induction of heterologous genes. Yeast strains were grown in shake flask or 96 well plates at 30° ° C., 140-250 rpm. When indicated, lanosterol synthase inhibitor, Ro 48-8071 (Cayman Chemicals) was added (50 ug/ml). Yeast samples producing mogrol precursors, mogrol and mogrosides were processed through one of the following: • Cucurbitadienol and 11-OH Cucurbitadienol: Samples cell pellets were lysed (Yeast Buster) followed by ethyl acetate extraction, drying, and resuspension in methanol. • ·Mogrol and Mogrosides: Samples cell pellets were lysed in 50% ETOH, incubated at 80° C. for 30 min, filtered, dried and resuspended in MeOH for LCMS screening.
For analyzing 11-OH cucurbitadienol, the LCMS method included the use of C8 2.1×100 mm column, gradient 60 to 90% B for 6 minutes at flow rate of 0.55 ml/min. For the enzyme screening, the LCMS method used was a Waters Acquity UPLC Protein BEH C4, 2.1×100 mm, 1.7 μm column and a gradient of 40% to 80% over 5 minutes, 95% B from 5.1 to 5.6 minutes with a flow rate of 0.55 ml/min, and ESI source positive mode single ion monitoring of 425.4.
Additional CYP450s were expressed in S. cerevisiae strain producing cucurbitadienol and expressing SgCPR. DNA and protein sequences for the CYP450 enzymes are shown in SEQ IDs 871-890 and 1024-1049 (see Table 1).

mogrol precursors = assay: Mogrol production by EPHs tested in a yeast strain producing mogrol precursors
Excerpt: as §3, with “Yeast samples producing mogrol precursors, mogrol and mogrosides were processed through one of the following: • Cucurbitadienol and 11-OH Cucurbitadienol: Samples cell pellets were lysed (Yeast Buster) followed by ethyl acetate extraction, drying, and resuspension in methanol. • ·Mogrol and Mogrosides: Samples cell pellets were lysed in 50% ETOH, incubated at 80° C. for 30 min, filtered, dried and resuspended in MeOH for LCMS screening.” left out

Q: C[C@H](CC[C@@H](O[C@@H]1O[C@H](CO[C@H]2O[C@H](CO)[C@@H](O)[C@H](O)[C@H]2O)[C@@H](O)[C@H](O)[C@H]1O[C@@H]1O[C@H](CO)[C@@H](O)[C@H](O)[C@H]1O)C(C)(C)O)C1CC[C@@]2(C)C3CC=C4C(CC[C@H](O[C@@H]5O[C@H](CO)[C@@H](O)[C@H](O)[C@H]5O)C4(C)C)[C@]3(C)[C@H](O)C[C@]12C (some centres unmarked) [Compound 1] was tested. Which hydrolysis products (Y. lipolytica; Y. lipolytica grown in the presence of the compound) did it give?
A: no hydrolysis products due to hydrolysis of Compound 1 was observed; also recorded: no hydrolysis product from Compound 1 was detected

Q: And the hydrolysis products (S. cerevisiae; S. cerevisiae grown in the presence of the compound)?
A: no hydrolysis products due to hydrolysis of Compound 1 was observed; also recorded: no hydrolysis product from Compound 1 was detected

Q: What about the “hydrolysis by yeast strains (hydrolysis products by HPLC)” value [1] of the same molecule?
A: no hydrolysis products observed; also recorded: tolerance of Compound 1 to hydrolysis by microbial enzymes

Q: With C[C@H](CC[C@@H](O[C@@H]1O[C@H](CO[C@@H]2O[C@H](CO)[C@@H](O)[C@H](O)[C@H]2O)[C@@H](O)[C@H](O)[C@H]1O[C@@H]1O[C@H](CO)[C@@H](O)[C@H](O)[C@H]1O)C(C)(C)O)[C@H]1CC[C@@]2(C)[C@@H]3CC=C4[C@@H](CC[C@H](O[C@@H]5O[C@H](CO[C@@H]6O[C@H](CO)[C@@H](O)[C@H](O)[C@H]6O)[C@@H](O)[C@H](O)[C@H]5O)C4(C)C)[C@]3(C)[C@H](O)C[C@]12C [Mogroside V, reference compound] as the molecule, how does the “mogroside content after incubation” value (Y. lipolytica; Y. lipolytica, 2 days of incubation) read?
A: produced mostly Mogroside IIIE

Q: And the “mogroside content after incubation” value (S. cerevisiae; 1 day of incubation)?
A: produced a mixture of Mogroside V, Mogrosides IV, and Mogroside IIIE

Q: And the “mogroside content after incubation” value (S. cerevisiae; 2 days of incubation)?
A: substantially all of the mogrosides were converted to Mogroside IIIE

Q: And the “hydrolysis by yeast strains (hydrolysis products by HPLC)” value [1]?
A: hydrolyzed Mogroside V to Mogroside IIIE

B1: SEQ ID NO. 1046/1047: CYP450 enzyme (DNA/protein SEQ ID NO) producing 11-OH cucurbitadienol (protein, listed as Siraitia grosvenorii)
chain: MELWLWLLGASVGAYVFVFGILRNLNQWRFVTRHRNRYNLPPGDMGWPLIGTLLPFLQAFRSGRPDSFIHYFASTYGKIGMYKTYLFGSPSVIVCLPEVCRHVLMNDEQFVFGYSKATRILTGSKALNTVPKAEHRRLRRLIASLISGNDALSVYIGHVEGIVINCLQEWGSMKKPVEFLSEMKTVAFKVLLHIFIGSTSAAFIDKMEKLYTDFHLGFMSTPIDLPGTTFSRALKARNELIRIFENVLKEKRANLKSKEGENRKKDMTDLLLEVRDEDGQGLDDGCIIDLLIGFFFAGHETSAHSIMRAIMFLSENPETLLKAKAEQEQIVKARPADDQHKGLTMKEIKQMEYLSKVIDETLRKTSLAFTLSRETKVDVNLNGYTIPKGWKILVWTRAVHMDPEIYESPQKFDPSRWDNSKRRAGSFIPFGAGMRLCPGIDLSKLEIAIFLHYFIYGGFRLERVNPNCPENYLPLARPTDNCLARVVRDS
Q: How did the “Peak Area 11-OH CCB” value (cucurbitadienol) turn out when B1 was run?
A: 0.2276

B2: SEQ ID NO. 1072 and 1073: epoxide hydrolase (EPH); coding DNA and protein sequence (protein)
chain: MDAIQHTTIKTNGIKMHIASVGNGPVVLLLHGFPELWYSWRHQLLYLSSVGYRAIAPDLRGYGDTDSPESHTSYTALHIVGDLVGALDELGIEKVFLVGHDWGAIIAWYFCLFRPERIKALVNLSVQFFPRNPAISFIQRFRAAYGDDFYMCRFQVPGEAEADFACIDTAQLFKTTLSNRSTKAPCLPKEYGFRAIPPPENLPSWLTEEDINYYAAKFKETGFTGALNYYRAFDLTWELTAPWTGVQIQVPVKFIVGDSDLTYHFKGAKEYIHEGGFKRDVPLLEEVVIVENAGHFVHEEKPHEINTHIHDFIKKF
modifications: Cucumis melo
Q: How did the “ability to produce mogrol” value (mogrol precursors) turn out when B2 was run?
A: showed the ability to produce mogrol

B3: SEQ ID NO. 1048/1049: CYP450 enzyme (DNA/protein SEQ ID NO) producing 11-OH cucurbitadienol (protein, listed as Siraitia grosvenorii)
chain: MWLLLIGAIVVLSFTRWLYGWKNPKCNGKLPPGSMGFPLLGETLQFFSPNTSSDVPPFIRKRMDRYGPIFRTNLVGRPLIVSTDSDLNYFIFQQEGQLFQSWYPDTFTEIFGRQNVGSLHGFMYKYLKNMVLHLFGPESLRKMIPEVEAAATRRLRQWSSHNTVELKDETASMIFDLTAKKLISYDLESSSENLRDNFVAFIQGLISFPLNVPGTAYHKCLQGRKRAMRMLKNMLQERRANPRKQQIDFFDFVLEELEKDGTLLTEEIALDLMFVLLFASFETTSLALTAAIKFLLDNPHVLEELTAEHEGILKRRENADSGLTWGEYKSMTFTFQFINETVRLANIVPGIFRKALRDIQFKGYTIPAGWAVMVCPPAVHLNPEKYIDPLAFNPWRWEKSELNGASKHFMAFGGGMRFCVGTDFTKVQMAVFLHCLVTKYRFKAIKGGNIIRTPGLQFPNGFHIQITEK
Q: B3 was tested. Which “Peak Area 11-OH CCB” value (cucurbitadienol) did it give?
A: 0.2083

B4: SEQ ID NO. 1024/1025: CYP450 enzyme (DNA/protein SEQ ID NO) producing 11-OH cucurbitadienol (protein, listed as Citrullus lanatus)
chain: MWTILLGLATLAIAYYIHWVNKWKDSKFNGVLPPGTMGLPLIGETIQLSRPSDSLDVHPFIQSKVKRYGPIFKTCLAGRPVVVSTDAEFNHYIMLQEGRAVEMWYLDTLSKFFGLDTEWLKALGLIHKYIRSITLNHFGAESLRERFLPRIEESARETLHYWSTQPSVEVKESAAAMVFRTSIVKMFSEDSSKLLTGGLTKKFTGLLGGFLTLPLNLPGTTYNKCIKDMKEIQKKLKDILEERLAKGTGNDEDFLGQAIKDKESQQFISEEFIIQLLFSISFASFESISTSLTLILKFLADHPQVVKELEAEHEAIQKARADPDGPITWEEYKSMTFTLNVISETLRLGSVTPALLRKTTKEIQIKGYTIPEGWTVMLVTASRHRDPEVYKDPDTFNPWRWKELDSITVQKNFMPFGGGLRHCAGAEYSKVYLCTFLHILFTKYRWTKLKGGKIARAHILRFEDGLHVKFTPKE
Q: For B4, which “Peak Area 11-OH CCB” value (cucurbitadienol) is on record?
A: 1.231
